Values of other authors in patent publication US20150190399A1, “NEW DIFFERENTIAL-RELEASE PHARMACEUTICAL COMPOSITION CONTAINING THREE ACTIVE PRINCIPLES” (LANDSTEINER SCIENTIFIC S.A. DE C.V., priority 2012, published 2015).

Conditions: in vivo

CCCCc1nc(Cl)c(CO)n1Cc1ccc(-c2ccccc2-c2nn[nH]n2)cc1 [Losartan potassium, losartan potassium]
half-life: approximately 2 hours
